Test results taken from patent US5589510A, “Method for inhibiting retroviral infection by administering a naphthalenesulfonic acid compound” (priority 1995, dated 1996).

Key:
HIV-1 RF = assay: Antiviral assay, Experimental Protocol I (compound added after infection); assay type: cell-based; conditions: Human immunodeficiency virus 1, 240 h, 10% FCS, p24 ELISA, read-out: % Inhibition (after day 10)
HIV-1 patient isolate IH = assay: Inhibition of HIV-1 patient isolate IH in CD4^+ cells; assay type: cell-based; conditions: Human immunodeficiency virus 1, 288 h, 10% FCS, read-out: % Inhibition (after day 12)
Method: The inhibitory effects of additional naphthalenesulfonic acid compounds were tested as follows: Experimental Details:
PBMCs were activated for 48 hours in conditioned medium containing PHA at a concentration of 4 μg/ml. Thereafter 10^6 cells were plated in each of the 24 well plates containing 10% FCS or 50% FCS. The test compound, previously dissolved in a glucose solution (1 mg/ml), was then added to each of the wells to achieve the appropriate concentration. The plate was then incubated overnight (about 15 hours) after which 50 μl of cell-free HIV-1 patient isolate was added to each well. The plates were incubated for further 6 to 8 hours after which all free floating solution of virus was washed off. Washing was performed four times.
After removal of the virus, all cultures were resuspended in conditioned medium containing 10% FCS.
For control experiments virus growth was monitored in either 10% FCS or 50% FCS throughout the observation period (15 days).

LD50, intravenous, mice = assay type: in vivo; conditions: female mice, mortalities within 1 week; for LD50 at 168 h: mouse, in vivo
Method: The test material was administered intravenously to 5 female mice in five increasing doses. Mortalities were recorded within 1 week, and the LD50 was determined with the aid of statistical calculations.

[1] = target: T1, recombinant reverse transcriptase (RT) (Human immunodeficiency virus type 1 group M subtype B, UniProt P04585); assay: Reverse transcriptase inhibition assay; assay type: biochemical, HIV-1; conditions: at 0.5 μM
T1 construct: purchased Worthington Biochemical Corporation
Method: Inhibition of recombinant reverse transcriptase (RT) was performed by using commercially available Boehringer Mannheim RT assay kit (Cat. No. 1468 120) based on incorporation of digoxigenin labeled dUTP into DNA. Recombinant enzyme from HIV-1 was purchased from Worthington Biochemical Corporation. The level of anti-RT activity in the sample was determined by measurement of absorbance using an ELISA reader at 405 nm.

[2] = system: TA98, TA1535, TA1537, TA1538, TA100 and W2P2uvr; assay: Ames Test (in the presence of S9); assay type: cell-based, Salmonella typhimurium
Excerpt: Six Salmonella typhimuriumstrai strains, TA98, TA1535, TA1537, TA1538, TA100 and W2P2uvr were used in this experiment.

HIV rgp120 / CD4 cells = conditions: literature (Balzarini et al.); cited from earlier work
standard Ames Test = conditions: literature (K-T. Chung et al); cited from earlier work
syncytium formation = conditions: literature (Mohan et al.; Tan et al.; Baba et al.); cited from earlier work
retroviruses = conditions: literature (Ito et al.); cited from earlier work

Work on `COc1cc(N=Nc2c(S(=O)(=O)O)cc3cc(S(=O)(=O)O)cc(NC(=O)c4cccc5ccccc45)c3c2O)c(OC)cc1N=Nc1c(S(=O)(=O)O)cc2cc(S(=O)(=O)O)cc(NC(=O)c3ccc(Cl)cc3Cl)c2c1O` [Compound 1] yielded an inhibition at 0.6 µg/mL (HIV-1 RF; 0.6 μg/ml) of 98%, an inhibition at 1.25 µg/mL (HIV-1 RF; 1.25 μg/ml) of 100% and an inhibition at 2.5 µg/mL (HIV-1 RF; 2.5 μg/ml) of 100%. For the same molecule, the inhibition at 5 µg/mL (HIV-1 RF; 5 μg/ml) was 100%, the inhibition at 10 µg/mL (HIV-1 patient isolate IH; 10 μg/ml) was 50% and the inhibition at 20 µg/mL (HIV-1 patient isolate IH; 20 μg/ml) was 100%. For the same molecule, the LD50 at 168 h (LD50, intravenous, mice) was 150 mg/kg, the inhibition at 0.5 µM [1] was 70% and the “Ames Test result” value [2] was “Negative”.

For `Cc1cc(-c2ccc(/N=N/c3ccc4c(S(=O)(=O)O)cc(S(=O)(=O)O)c(N)c4c3O)c(C)c2)ccc1/N=N/c1ccc2c(S(=O)(=O)O)cc(S(=O)(=O)O)c(N)c2c1O` [Evans Blue, reference compound], the “inhibition of interaction of HIV rgp120 with CD4 cells” value (HIV rgp120 / CD4 cells) is given as “inhibitor of the interaction of HIV rgp120 with CD4 cells”, the LD50 at 168 h (LD50, intravenous, mice) is given as 100 mg/kg and the inhibition at 0.5 µM [1] is given as 48%. For the same molecule, the “Ames Test result” value [2] was “Positive”, the “Ames Test, specific mutagenic activity” value ([2]; the higher the value, the higher the mutagenicity) was 10 colony no/μg and the “mutagenic effects in Ames Test” value (standard Ames Test) was “strong mutagenic effects”.

For `CC1=C/C(=C(\c2ccc(N)c(S(=O)(=O)[O-])c2)c2ccc(N)c(S(=O)(=O)O)c2)C=C(S(=O)(=O)[O-])C1=N.[Na+].[Na+]` [Fuchsin Acid, reference compound], the LD50 (LD50, intravenous, mice; 10080 min) is listed as 100 mg/kg and the “inhibition of syncytium formation” value (syncytium formation) is listed as “inhibitors of syncytium formation”.

In the case of dextran sulfate, the anti-retroviral activity (retroviruses) is given as “known anti-retroviral compounds”.
